Results from patent US20250145715A1, “B7-H3 TARGETING FUSION PROTEINS AND METHODS OF USE THEREOF” (GT Biopharma, Inc., priority 2021, published 2025).

What was measured:
[1] = tested on: ovarian cancer cell lines; assay: NK cell activation against ovarian cancer lines vs K562 / Raji; format: cell-based
Description: ADCC was measured in a flow cytometry assay by evaluating degranulation via CD107a (lysosomal-associated membrane protein LAMP-1) and intracellular IFNγ production. Upon thawing, normal donor and patient-derived PBMCs or ascites cells were rested overnight (37° C., 5% CO2) in RPMI 1640 media supplemented with 10% fetal calf serum (RPMI-10). The next morning, they were suspended with tumor-target cells or media after washing twice with RPMI-10. Cells were then incubated with TriKEs or controls for 10 min at 37° C. Fluorescein isothiocyate (FITC)-conjugated anti-human CD107a monoclonal antibody (BD Biosciences, San Jose, CA, USA) was then added. […] Samples were washed and evaluated in an LSRII flow cytometer (BD Biosciences, San Jose, CA, USA).
The ability of cam1615B7-H3 TriKE to mediate NK cell activity against ovarian cancer cells was evaluated. […] In order to determine if the individual components of the TriKE could induce NK cell activity on their own, the individual cam16 VHH, IL-15, or anti-B7-H3 scFv components were incubated with PBMCs and OVCAR8 cells and activity was determined. […] NK cell activity, from normal donor PBMCs and ascites from the peritoneal cavity of ovarian cancer patients at the time of surgery, was assessed against MA-148 cells, another high-grade serous ovarian adenocarcinoma cell line (FIGS. 29A-29B and 30G-30H). […]

[2] = tested on: C4-2 prostate cancer cells; assay: NK cell CD107a / IFNγ flow cytometry against C4-2; format: cell-based, human; conditions: normal donor and prostate cancer patient NK cells, vs controls
Source text: FIG. 15A is a graph showing pooled analysis of proportion of NK cells from healthy donors or prostate cancer patients expressing CD107a+ (top) or IFNγ (bottom) against C4-2 targets (N=9 for healthy donors, N=3 for patients). FIG. 15B is a graph showing pooled analysis of proportion of NK cells from healthy donors or prostate cancer patients expressing CD107a+ (top) or IFNγ (bottom) against DU145 targets (N=9 for healthy donors, N=3 for patients). FIG. 15C is a graph showing pooled analysis of proportion of NK cells from healthy donors or prostate cancer patients expressing CD107a+ (top) or IFNγ (bottom) against LNCaP targets (N=9 for healthy donors, N=3 for patients). FIG. 15D is a graph showing pooled analysis of proportion of NK cells from healthy donors or prostate cancer patients expressing CD107a+ (top) or IFNγ (bottom) against PC3 targets (N=9 for healthy donors, N=3 for patients). * p<0.05, ** p<0.01, *** p<0.001, and **** p<0.0001.
FIG. 23A is a graph illustrating percent CD107a+ NK cells in PBMCNK alone in the presence of 0.3 nM TriKE. […]
ADCC was measured in a flow cytometry assay by evaluating degranulation via CD107a (lysosomal-associated membrane protein LAMP-1) and intracellular IFNγ production. […] Samples were washed and evaluated in an LSRII flow cytometer (BD Biosciences, San Jose, CA, USA). […]

Substance: cam1615B7-H3: second-generation TriKE: humanized camelid anti-CD16 VHH, human wild-type IL-15, anti-B7-H3 mAb 376.96 scFv; SEQ ID NO:1
- IFNγ production against ovarian cancer vs K562 natural cytotoxicity signal ([1]; K562 in the absence of TriKE): stronger IFNγ production
- fold NK cell activation (PBMC+Tumor+TriKE divided by PBMC+TriKE alone) ([1]; all ovarian cancer cell lines vs Raji): higher than activation by the B7-H3-negative Raji line
- NK cell IFNγ production against C4-2 [2]: enhanced
- NK cell degranulation (CD107a) against C4-2 [2]: enhanced
